Laboratory results published in US20160129005A1, “ADENINE DERIVATIVES HAVING IMMUNOMODULATING ANTI-INFLAMMATORY AND ANALGESIC ACTIVITY” (MEDESTEA RESEARCH & PRODUCTION S.p.A., priority 2011, published 2016).
Values joined by “and” are separate entries in the source; they are usually repeats but may differ in a detail not shown here. Equal entries are not always repeated.

Assays:
[1] = tested on: Dark Agouti (DA) rats; assay: Chronic experimental autoimmune encephalomyelitis (MOG); assay type: in vivo, rat; details: 1 mg/kg per os daily from day of inoculation, to day 50; dose-dependent; FIG. 43
Experimental: We investigated whether treatment with […], at the onset of EAE induced by immunization with MOG (myelin-oligodendrocyte-glycoprotein), stimulates histologic protection and functional recovery.
The motor and sensory deficits were classified according to the previously assigned “neuronal” clinical scores.
Chronic EAE was induced in 60 female adult Dark Agouti (DA) rats of 120-170 g, immunizing the animals with an intradermal injection, at the base of the tail, of […] of recombinant protein MOG1-125 in emulsified PBS in complete Freund adjuvant (CFA) containing hot-inactivated M. tuberculosis.
The rats were divided into 3 groups of 20 animals each and were treated with daily administrations of vehicle or […] 0.1 or 1 mg/kg per os, starting from the day of inoculation.
The neurological scores were measured and evaluated daily for the first thirty days, and thereafter only on weekdays (Monday-Friday) until the end of the study (day 50).
The range of neuroclinical scores begins at 0 (absence of neurologic symptoms) and ends with a score of 5 (complete paralysis of all legs or animal moribund).

[2] = tested on: murine neuroblastoma; details: tissue cultures; Mirkin et al., Cancer Research 47, 1987; cited from earlier work
[3] = tested on: C57BL/6 mice transplanted with BALB/c hearts; assay: Murine heterotopic heart transplant model; assay type: in vivo, mouse
Experimental: The immunosuppressive potential of […] was tested on a heterotopic heart transplant model; hearts of BALB/c mice were transplanted into the abdominal cavity of C57BL/6 mice.
The beats of the heart were measured, twice weekly, by palpation; stopping of beating was regarded as a sign of transplant rejection.
Three different protocols were used for prolonging transplant survival times: the “short-term” protocol ([…] 9 mg/kg daily for 14 days), the “long-term” protocol ([…] 9 mg/kg every day until rejection), and the “Combo” protocol ([…] on alternate days: day 0, 2, 4, 6, 8, 10, 12, 14+Rapamycin 0.1 mg/kg from day 0 to day 10).
In the acute heart transplant models, the hearts of BALB/c were transplanted into the peritoneal cavity of C57BL/6 mice. The control mice invariably reject the transplant in 10 days (Ctrl: MST=7 days, n=12), (FIG. 26). The “short-term” protocol permitted indefinite survival (100 days) in 10 mice out of 12 (n=12; p=0.0001 vs. Ctrl), (FIG. 26). Similarly, the “long-term” protocol permitted indefinite survival in 8 mice out of 10 (n=10; p=0.002 vs Ctrl), and prolonged survival in the remaining 2 (16 days and 25 days; p=0.002 vs. Ctrl), (FIG. 26).
The histological sections of the hearts on day 7 of BALB/c mice, transplanted into a C57BL/6 host, and treated with the “short-term” protocol, were also analysed.

[4] = tested on: Lewis rats; assay: Acute experimental autoimmune encephalomyelitis (MBP/CFA); assay type: in vivo, rat; details: for peak of neurologic damage (neuroclinical score 0-5): vehicle peak 3 (day 13)
Experimental: We investigated whether treatment with […], at the onset of the acute form of experimental autoimmune encephalitis (EAE), the murine model of human multiple sclerosis, could induce a functional recovery.
The motor and sensory deficits were classified according to previously assigned “neuronal” clinical scores.
Adult female Lewis rats (200-250 g) were immunized with an intradermal injection, in the hind limbs, of […] of myelin basic protein (MBP) dissolved in 50 microlitres of emulsified saline solution in 50 microlitres of complete Freund adjuvant (CFA).
Starting from the fifth day post-inoculation, the rats were treated daily with […] (0.1 or 1 mg/kg per os) or with the placebo (vehicle).
The animals were monitored daily until day 21 for clinical symptoms; the range of neuroclinical scores extended from 0 (no neurologic symptom) up to a maximum of 5 (complete paralysis of all legs or death).
Inoculation with the MBP/CFA emulsion led to a very evident loss of body weight; this was not changed by the treatment with Immuflam. The animals were divided into three groups of 15: group 1 Immuflam 0.1 mg/kg, group 2 Immuflam 1 mg/kg, group 3 vehicle. They were all treated daily per os from day 5 until sacrifice.

[5] = tested on: DBA/1J mice; assay: Rheumatoid arthritis: type II collagen immunization; assay type: in vivo, mouse
Experimental: Rheumatoid arthritis (RA) is a chronic inflammatory disease that affects the joints in particular and is manifested by pain, stiffness and synovitis, which lead to destruction of the joint. Immunization of DBA/1J mice with type II collagen (CII) by intradermal injection, at the base of the tail, of 0.2 ml of an emulsion containing 2 mg/ml of bovine CII in complete Freund adjuvant induces T cells and autoantibodies specific to CII with clinical and histopathological signs that reproduce RA. Eighteen to twenty days after immunization, signs of inflammation appear, affecting one or more joints. At the first clinical signs of inflammation (inflammation of the digits and joints) with a score above 1.5 (Camps et al., 2005), we treated the animals with […] intraperitoneally (0.25 mg).
To establish the degree of infiltration of T cells in the arthritic lesions, sections fixed in formalin and embedded in paraffin were incubated with rabbit polyclonal anti-CD3 antibodies. After detection with peroxidase-labelled secondary antibodies, each sample was evaluated at 40× magnification and 3 immunoreactive “hot spots” were selected for counting the CD3^+ lymphocytes at 200× magnification.

[6] = tested on: Tg2576 mice; assay: Alzheimer's transgenic murine model Tg2576: behavioural tests and β-amyloid plaques; assay type: in vivo, mouse; details: 4 and 15 mg/kg i.p. daily, 6th to 13th month
Experimental: In the transgenic murine model Tg2576 there is no loss of neurons, but there is neuronal deficit and accumulation of β-amyloid plaques. The production of peptides begins to increase rapidly starting from the 6th month of age, accompanied by a progressive cognitive decline. Around the 7th to 8th month, the first plaques develop, which are then diffuse at the 12th month.
The mice were treated with […] at 4 and at 15 mg/kg i.p. daily starting from the 6th month of age up to the 13th. Between the 9th and 10th month and between the 12th and 13th month the mice were submitted to behavioural tests, at the 13th month they were sacrificed and immunohistochemical analyses were performed on brain samples to verify modulation of the β-amyloid plaques.

C=C(C=O)OC(C=O)n1cnc2c(N)ncnc21 (centres unmarked) [2-[1-(6-aminopurin-9-yl)-2-oxoethoxy]prop-2-enal]
neurological scores [1]: remained lower throughout the period of observation
cytotoxic activity [2]: cytotoxic activity
prolonged survival in the remaining 2 mice ([3]; long-term protocol): 16 days and 25 days
anti-FoxP3 labelling ([3]; short-term protocol, day 7): did not show significant differences
lymphocyte tissue infiltration (haematoxylin-eosin) ([3]; short-term protocol, day 7): absent
presence of mature macrophages ([3]; short-term protocol, day 7): completely inhibited
B and T lymphocytes (anti-B220, anti-CD3) ([3]; short-term protocol, day 7, vs controls): appear to decrease numerically
vasculopathy score ([3]; short-term protocol, Ctrl=2.0±0.003, p=0.007, FIG. 28C): 0.3±0.3
score of degree of infiltration ([3]; short-term protocol, Ctrl=2.7±0.3, p=0.01, FIG. 28B): 0.7±0.3
clinical scores vs vehicle groups ([4]; between day 12 and day 15, FIG. 4): significant differences
peak of neurologic damage (neuroclinical score 0-5) ([4]; group 1, 0.1 mg/kg per os daily from day 5): 2.3
peak of neurologic damage (neuroclinical score 0-5) ([4]; group 2, 1 mg/kg per os daily from day 5): 1.5
cartilage erosion (content of proteoglycans) ([5]; 0.25 mg i.p., FIG. 29A): significant reduction in cartilage erosion
CD3+ lymphocytes infiltrating the joint ([5]; 0.25 mg i.p., FIG. 29B): significant reduction in CD3+ lymphocytes
clinical score ([5]; 0.25 mg intraperitoneally, from score above 1.5, vs carrier, FIG. 29C): significant reduction in the clinical score
score obtained in moving to Y (Y-maze test) [6]: very encouraging
finding and climbing onto the platform, hidden or visible (water maze test) ([6]; vs vehicle): significantly faster than the control
